Patent US8344100B2, “Poly-epitope peptide derived from thymidylate synthase having immunological and anti-tumour activity” (Universitá degli Studi di Siena, priority 2005, dated 2013)
Values belong to the molecule of their own block, whether it stands above or below them. Where a SMILES comes first, the peptide text is derived from it.

Legend:
[1] = Anatomo-pathological study of organs (autoimmunity, toxicity); assay type: in vivo, transgenic (HHD) mice; conditions: lung, liver, spleen, kidney, brain, skin and mucosa
SW-1463 cells = test: 51Cr release cytotoxicity test of CTL lines against colon carcinoma cells SW-1463; assay type: cell-based; conditions: SW-1463 pretreated with 5-FU
From the text: (§1) The lymphocyte lines generated in vitro using TS/PP were capable of destroying the target cells derived from colon carcinoma (the HT-29 and SW-1463 cell lines).

[2] = tested on: HT-29 cells transfected with the HLA-A(*)02.01 gene; test: 51Cr release cytotoxicity test of CTL lines against colon carcinoma cells HT-29; assay type: cell-based; conditions: HT-29 pretreated with 5-FU
Description: as §1
HLA-A (*)02.01 expression was induced by gene transfection on the membrane of HT29 target cells before every experiment. Specific lysis was calculated as follows: […]

MDA-MB-231 cells = conditions: MDA-MB-231 pretreated with 5-FU
Description: Cytotoxic assays. The release of radioactive chrome (^51Cr) was assayed as described in previous studies [18].
Spontaneous release was determined in the plates to which 100 μl of medium was added without effector cells. The total radioactivity released was determined after treating the target with Triton x-100. HLA was blocked by using an anti-HLA-A2 antibody (A2.69, One Lambda, Inc., Chanoga Park, Calif., USA) or the anti-class I (pan A,B,C)-HLA antibody W6.32, which were incubated with the target cells for one hour before the cytotoxicity assay. The negative control was the UPC-10 monoclonal antibody.
The cytotoxicity tests carried out using the technique of ^51Cr release were performed using target cells coming from cell lines derived from breast carcinoma (MDA-MB-231) and colon carcinoma (HT-29 and SW-1463), before and after treatment with sub-lethal doses of 5-FU.

[3] = tested on: EL-4/HHD autologous leukemic cells; test: Tumour growth in HHD mice inoculated with EL-4/HHD cells; assay type: in vivo, transgenic (HHD) mice; conditions: with weekly intraperitoneal 5-FU
Description: The results are given as the mean value ±SD of the maximum diameter.
In this study, six groups of five mice received different immunological treatments with or without chemotherapeutic treatment with 5-FU. The mice in groups A and B were administered a control peptide derived from the mumps virus (100 μg per mouse); the mice in groups C and D were administered a cocktail of the TS-1, TS-2 and TS-3 peptides (100 μg per mouse); and the mice in groups E and F were administered the TS/PP peptide (100 μg per mouse).
The mice received the first peptide administration subcutaneously at time 0, with recalls in the third and sixth week. Two weeks after the last administration, all animals were subcutaneously inoculated with 2×10^6 EL-4/HHD cells.
In order to evaluate the possible interaction between TS and the 5-FU treatment for vaccination purposes, seven days after the tumour cells inoculation, the mice in groups B, D and F underwent a chemotherapeutic treatment based on weekly intraperitoneal administration of 5-FU ([…]).

[4] = tested on: MDA-MB-231, HT-29 and SW-1463 target cells; test: Cytofluorimetric and immunoblotting analyses of target cells treated with 5-FU; assay type: cell-based, human; conditions: data not shown
[5] = tested on: breast and colon carcinoma tumour cells; test: Viability of target cells exposed to 5-FU (hemocytometric count); assay type: cell-based, human; conditions: sub-lethal doses for 48 hours
From the text: The viability of the target cells exposed to 5-FU was examined by means of a hemocytometric count after staining and was never less than 90%, thus excluding the possibility that the immunosensitisation was due to the large number of dead or already degenerating cells in the cytotoxicity assay.

[6] = tested on: murine TS in EL-4/HHD cells; test: Cytofluorimetric test of TS expression in EL-4/HHD cells; assay type: cell-based, mouse; conditions: sub-lethal dose, constitutive expression 35%
[7] = target: T1, HLA-A(*)02.01 molecule on cells (human); test: T2 test (flow cytometry, HLA-A*02:01 on T2 cells)
T1 construct: whole, on cells; Class I MHC molecule on cells; also called HLA-A2; HLA-A2.1

[8] = target: T1, HLA-A(*)02.01 molecule on cells; test: T2 test (flow cytometry of HLA expression on T2 cells after exposure to the peptide)

Molecule: CC[C@H](C)[C@H](NC(=O)[C@H](CCSC)NC(=O)[C@@H](N)Cc1ccc(O)cc1)C(=O)N[C@@H](C)C(=O)N[C@@H](Cc1c[nH]cn1)C(=O)N[C@H](C(=O)N[C@H](C(=O)NCC(=O)N[C@@H](CC(C)C)C(=O)N[C@@H](Cc1ccccc1)C(=O)N[C@@H](CC(C)C)C(=O)N[C@@H](CC(=O)O)C(=O)N[C@@H](CO)C(=O)N[C@@H](CC(C)C)C(=O)NCC(=O)N[C@@H](Cc1ccccc1)C(=O)N[C@@H](CO)C(=O)N[C@H](C(=O)N[C@H](C(=O)N[C@@H](CC(C)C)C(=O)NCC(=O)N[C@@H](CC(=O)O)C(=O)N[C@@H](C)C(=O)N[C@@H](Cc1c[nH]cn1)C(=O)N[C@H](C(=O)N[C@@H](Cc1ccc(O)cc1)C(=O)N[C@@H](CC(C)C)C(=O)O)[C@@H](C)CC)[C@@H](C)O)[C@@H](C)O)[C@@H](C)O)[C@@H](C)CC [TS/PP] (H-YMIAHITGLFLDSLGFSTTLGDAHIYL-OH; N-terminus and C-terminus assumed)
Degeneration, autoimmunity or toxicity [1]: do not indicate any autoimmunity or toxicity phenomena
Lysis after target cell pre-treatment with sub-lethal 5-FU doses (SW-1463 cells): significantly increased
Lysis after target cell pre-treatment with sub-lethal 5-FU doses [2]: significantly increased
Lytic activity after target cell pre-treatment with sub-lethal 5-FU doses (MDA-MB-231 cells): significantly increased

Molecule: O=c1[nH]cc(F)c(=O)[nH]1 [5-FU, 5-fluorouracil]
Neoplastic growth [3]: did not change neoplastic growth in any way
TS expression ([4]; MDA-MB-231, HT-29, SW-1463): significant increase
Class I HLA expression [4]: did not induce any change
Viability of the target cells [5]: ≥ 90%
Expression of murine TS [6]: 55-70%

Molecule: FLDSLGFST (Synthetic 9-mer) [TS-3 peptide (FLDSLGFST)]
binding result [7]: binds

Second part, the molecule after the results:

binding result [7]: binds
Molecule: TLGDAHIYL (Synthetic 9-mer) [TS-1 peptide (TLGDAHIYL)]

binding result [8]: no binding
Molecule: YMIAHITGLFLDSLGFSTTLGDAHIYL (also called 28-amer peptide) [TS/PP poly-epitope peptide (YMIAHITGLFLDSLGFSTTLGDAHIYL)]

binding result [7]: binds
Molecule: YMIAHITGL (Synthetic 9-mer) [TS-2 peptide (YMIAHITGL)]
